The values below come from patent US6071916A, “HIV protease inhibitor” (priority 1998, dated 2000).

Where a name gives a salt, the structure may show the parent alone.

A short description of series [1]: oral absorption and bioavailability in animal models. The class given is in vivo.
The nature of series [2]: hydrophobic/hydrophilic nature in formulation. Type of series: physicochemical. To be noted: dispersion during formulation; HCl (dihydrate) requires wetting agents.
The test system of another series is HIV protease. Conditions: assays described in WO 95/16688; cited from earlier work.

With `CC(C)(C)NC(=O)[C@@H]1CN(Cc2cc3ccccc3o2)CCN1C[C@@H](O)C[C@@H](Cc1ccccc1)C(=O)N[C@H]1c2ccccc2C[C@H]1O` [HCl (dihydrate) salt, reference compound], in series [1] (oral, animal models), the oral absorption entry is “poor”. Further, the “hydrophobic or hydrophilic nature” value in series [2] is “extremely hydrophobic”.
Take `CC(C)(C)NC(=O)[C@@H]1CN(Cc2cc3ccccc3o2)CCN1C[C@@H](O)C[C@@H](Cc1ccccc1)C(=O)N[C@H]1c2ccccc2C[C@H]1O` [Compound A, N-(2(R)-hydroxy-1(S)-indanyl)-2(R)-phenylmethyl-4-(S)-hydroxy-5-(1-(4-(2-benzo[b]furanylmethyl)-2(S)-N'-(t-butylcarboxamido)-piperazinyl))-pentaneamide]: in the series with HIV protease, the “inhibition of HIV protease” value is “potent inhibitor of HIV protease”.
Take `CC(C)(C)NC(=O)[C@@H]1CN(Cc2cc3ccccc3o2)CCN1C[C@@H](O)C[C@@H](Cc1ccccc1)C(=O)N[C@H]1c2ccccc2C[C@H]1O` [sulfate salt]: the rate of absorption entry in series [1] (compared with the existing HCl, HBr and methanesulfonate salts) was “more rapidly absorbed than the existing HCl, HBr and methanesulfonate salts”. Moreover, in series [1] (oral, animal models), the bioavailability entry is “much greater” and the oral absorption entry is “much greater”. Besides, in series [2], the “hydrophobic or hydrophilic nature” value is listed as “hydrophilic”.
